Test results published in ChEMBL document CHEMBL3507680, “University of Dundee, Gates Library screen for HepG2 cell viability”.

assay: Human HepG2 cell viability assay in 384 well format; assay type: toxicity, cell-based; set-up: dose 125 nL, time 70.5 hour; concentration not given beside the values; settings: HepG2 cells, read-out: Inhibition

Point of comparison: `CCc1ccc(C(=O)O)cc1S(=O)(=O)Nc1ccc(=O)n(C)c1`, cytotoxicity at 70.5 h 5.54%. Against it:
- CCOc1ccc(CCC(=O)N2CC[C@H]3C(=O)NCCO[C@H]3C2)cc1 — lower, -10.6%
- O=C(NCC1CC1)C1CN(Cc2ccncc2)Cc2ccnn2C1 (centres undefined) — lower, -11.9%
- CN(C)C(=O)c1ccc(OC2CCCC2)cc1 — lower, -7%
- CC(=O)c1ccc(Cl)c(Cl)c1OCC(=O)NCC(F)(F)F — lower, -8.87%
- CC[C@H]1CN2CC[C@H]1C[C@@H]2CNC(=O)Nc1cccc(C#N)c1 — higher, 13.7%
- Cn1cc(N2CCCC(SCc3ccco3)C2=O)cn1 (centres undefined) — higher, 14.8%
- CC(=O)NCCCNC(=O)Nc1ccccc1-n1nc(C)cc1C — lower, 0.874%
- N#Cc1c(F)cccc1N1CCC(C(=O)Nc2nccs2)CC1 — lower, -17.6%
- O=C([C@H]1CN(Cc2ccncc2)C[C@H]2OCC[C@@H]12)N1CCCCO1 — lower, -14.4%
- Cc1nc(N(C)C2CCCCC2)ncc1C(C)NC(=O)c1cscn1 (centres undefined) — lower, 1.66%
- CCn1ncc(CN2CCN(C(=O)Cn3cc(Br)c(C)n3)CC2)c1C — lower, -9.19%
- CN(Cc1cccnc1)c1nc(-c2ccccn2)nc2c1CCNCC2 — lower, -5.18%
- CCCN(Cc1nc(-c2ccc(F)c(OC)c2)oc1C)CC1CCCO1 (centres undefined) — lower, -5.99%
- N#Cc1ccccc1CN1CCC2(CC1)CC(c1ccccc1)C(=O)N2 (centres undefined) — higher, 14%
- OC[C@@H]1CCCN1c1nccc(-c2c[nH]nc2-c2ccncc2)n1 — lower, -2.39%
- COc1ccccc1-c1ccc(C2CCCN(C(C)=O)C2)nc1 (centres undefined) — lower, -0.199%
- O=C1Nc2ccccc2CN(CC2CCCC2)C12CCNC2 (centres undefined) — lower, -2.12%
- CCS(=O)(=O)N1CCC2(CCN(C(=O)c3cccs3)CC2)CC1 — lower, -4.52%
- Cc1cc(C)c2c(N(C)CC3CCOC3)ncnc2n1 (centres undefined) — lower, -4.45%
- COc1cc(C(=O)NS(=O)(=O)c2cc(Cl)sc2Cl)ccc1OC(F)F — lower, -5.6%
- COCc1cc(O)nc(C2CCCN(Cc3ccc(F)cc3)C2)n1 (centres undefined) — lower, -0.561%
- c1cc(CN2CCCC(c3noc(C4CC4)n3)C2)no1 (centres undefined) — lower, 3.46%
- CCc1nsc(N2CCN(CC(=O)NCc3cccnc3)CC2)n1 — lower, -5.18%
- CC(=O)N1CCOC(c2c(C(=O)NC(C)(C)C)sc3ccccc23)C1 (centres undefined) — lower, -13.1%
- Cc1ccsc1C(=O)NC1CCN(c2cnn(C)c2)C1=O (centres undefined) — higher, 17.9%
- CN(Cc1cnn(C)c1)C(=O)c1cc(C(F)(F)F)n(C)n1 — lower, -15.3%
- O=C(CCCn1cccn1)N1CCCC(n2cncn2)C1 (centres undefined) — lower, 1.52%
- O=C(NC1CCS(=O)(=O)C1)c1sccc1-c1ccc(F)cc1 (centres undefined) — lower, -7.53%
- O=C(NCCc1ccn(-c2ccc(F)cc2)n1)C1CCCOC1 (centres undefined) — lower, -1.01%
- COc1ccc(CN2CCCC(n3cccn3)C2)c(Cl)c1OC (centres undefined) — lower, -9%
- CCc1ncc2c(n1)CN(Cc1nc3c(F)cccc3[nH]1)CC2 — lower, -5.3%
- CCN1CCCC1CNCc1cc2cc(C)c(C)cc2[nH]c1=O (centres undefined) — lower, -2.24%
- Cc1[nH]ccc1C(=O)N1CCCN1C(=O)OC(C)(C)C — lower, 0.542%
- CCOc1ccc(Cl)c(C(=O)N2CCN(c3ncccn3)CC2)n1 — lower, -12.1%
- CCN1CCOCC12CCN(C(=O)Cc1ccccc1)CC2 — lower, -11.2%
- Cc1ccc(O[C@@H]2C[C@H]3CN(C(=O)c4cccnc4)CCN3C2)cc1 — higher, 9.15%
- CC(C)NC(=O)C1(CC2CC(c3ccc(F)cc3)=NO2)CCNCC1 (centres undefined) — higher, 24.3%
- Cc1noc(C)c1CN1C(=O)[C@H]2CC[C@@H]1CN(Cc1cscn1)C2 — lower, -6.64%
- CC[C@H](C)Nc1nccc(-c2cnc3sc(C)c(C)n3c2=O)n1 — higher, 23.3%
- O=S(=O)(c1ccc(Cl)cc1)N1CCc2nc(C3CCNCC3)ncc2C1 — lower, -4.46%
- Cc1cc2[nH]c(=O)c(=O)[nH]c2cc1S(=O)(=O)NC1CCC(C)CC1 (centres undefined) — lower, -5.16%
- CC(=O)N[C@H]1CCN(C(=O)c2cc(Cn3cnc4ccccc43)[nH]n2)C1 — lower, -3.6%
- Cc1nc(C(=O)N2CC(C)Sc3ccccc32)cs1 (centres undefined) — lower, -7.31%
- CCc1nc(C2CCCN2CC(=O)Nc2c(C)nn(C)c2C)no1 (centres undefined) — lower, -3.18%
- Cc1cc(C2CCC2)nc(N2CCC3(CCNC(=O)CC3)CC2)n1 — lower, -13%
- O=C(Cc1c[nH]c(=O)[nH]c1=O)N1CCC2(CCC(=O)N(C3CC3)C2)CC1 — lower, 0.183%
- O=C1CC(c2cccc(Cl)c2)c2snc(C(=O)O)c2N1 (centres undefined) — lower, -5.92%
- Nc1nc2c(c(NCc3nccs3)n1)CCN(CC1CCCC1)CC2 — lower, -17.1%
- CCS(=O)(=O)N1C[C@@H](Oc2ccccn2)[C@H]2OCCC[C@H]21 — higher, 25.1%
- COCc1ncc(-c2nccn2CCS(C)(=O)=O)cn1 — higher, 27.5%
- Cc1nc(-c2nnc[nH]2)sc1C(=O)N(Cc1cccnc1)C1CC1 — higher, 9.64%
- CCc1nc(C)sc1C(=O)N1CCN(c2ncccc2C)CC1 — lower, -4.24%
- CCN(c1ccc(C(=O)NCCCN2CCCCC2)cc1)S(=O)(=O)CC — lower, -26.7%
- CCNC(=O)NC(=O)CNC(C)(CC)c1nccs1 (centres undefined) — lower, -1.38%
- CC1CCCN(S(=O)(=O)NCCCn2ccc3ccccc32)C1 (centres undefined) — lower, -9.54%
- N#CCCCN1CCCC1Cc1ccccc1 (centres undefined) — lower, -3.84%
- COc1cccc2c(=O)n(Cc3ccnc(C)c3)cnc12 — lower, -26.7%
- COc1ccc(CC(=O)N2CCN(Cc3ccco3)C[C@@H]2C)cc1 — lower, -7.32%
- O=C1[C@@H]2CN(c3ncccc3Cl)C[C@]2(C(=O)O)CN1CC1CC1 — lower, -7.05%
- c1ccc(CN2CCN(Cc3cnc(C4CCCCO4)nc3)CC2)cc1 (centres undefined) — lower, 1.9%
- CN(C)S(=O)(=O)N1CCCC(c2cccc(Cc3ccc(F)cc3)n2)C1 (centres undefined) — lower, 3.53%
- Cc1ncc(C(=O)N2CCCC(C(=O)CCc3ccccc3)C2)s1 (centres undefined) — lower, -13.8%
- Nc1ncccc1C(=O)NCc1cccc(Br)c1 — higher, 13.7%
- Cc1nc(N2CCN(C)CC2)ncc1C(=O)N1CCCCC1 — lower, -0.181%
- CSc1ncc(C(=O)N2C[C@@H](NC(C)=O)[C@H](c3ccc(C)cc3)C2)cn1 — lower, -5.41%
- CN(Cc1cccnc1)c1nccc(N2CCN[C@H]3CS(=O)(=O)C[C@H]32)n1 — lower, -3.96%
- CSCC(C)N(C)C(=O)c1nn(-c2ccc(F)cc2C)cc1O (centres undefined) — lower, -10.1%
- CC(=O)c1cccc(NC(=O)Cn2cnc(-c3ccccc3)cc2=O)c1 — lower, -3%
- CCC(CC)CN1CCCn2nc(CNC(=O)COC)cc2C1 — lower, -10.4%
- CN(C)C(=O)CN1CCOCC2(CCN(c3ncc(F)cn3)CC2)C1 — lower, -6.93%
- CNc1nccnc1C1CN(Cc2ccc3[nH]ccc3c2)CCO1 (centres undefined) — lower, -2.11%
- Cc1ccc(F)cc1S(=O)(=O)NCc1cccnc1N(C)C — lower, -10.3%
- CN(C)C(CNC(=O)c1nc(N2CCCC2)ncc1Cl)c1ccco1 (centres undefined) — lower, -17.5%
- CCOc1ncccc1CNC(=O)c1csc(Br)c1 — lower, -8.48%
- c1cc(C2CCN(c3ncnc4c3CCNCC4)CC2)ccn1 — lower, -10.9%
- CC(=O)N1N=C(c2ccccc2)OC1C(=O)NCCOc1ccccc1 (centres undefined) — lower, -3.08%
- CS(=O)(=O)N1Cc2nccn2CC(CN2CCCC2)C1 (centres undefined) — lower, -3.59%
- Cc1cc(F)ccc1S(=O)(=O)NCc1cccc(C(=O)N2CCCC2)c1 — lower, -14.8%
